The text below walks through data of patent US12077503B2, “Substituted cyclic amides and their use as herbicides” (FMC CORPORATION, priority 2015, dated 2024).

Molecules are shown by their SMILES.

Assay type in all cases: in vivo
For test [1], the system named is velvetleaf (Abutilon theophrasti). The test can be described thus: Test G Pre-Emergence Protocol. As to conditions: Abutilon theophrasti, pre-emergence, 312 h, evaluated after 13 days; for pest or weed control at 15.625 g/ha: 15.625 g ai/ha; for pest or weed control at 15.625 g/ha / pest or weed control at 250 g/ha: read-out: Velvetleaf damage rating (100=total damage to plant; 0=no damage to plant); for pest or weed control at 62.5 g/ha: 62.5 g ai/ha, 100=total damage to plant, 0=no damage to plant, read-out: plant damage rating, Velvetleaf; for pest or weed control at 250 g/ha: 250 g ai/ha. The protocol:
(§1) Seeds of corn (Zea mays), giant foxtail (Setaria faberi), barnyardgrass (Echinochloa crus-galli), ivy-leaved morning glory (Ipomoea hederacea), redroot pigweed (Amaranthus retroflexus) and velvetleaf (Abutilon theophrasti) were sown in standard soil in pots. After cultivation for one day under controlled conditions in a glasshouse (at 24/16° C., day/night; 14 hours light; 65% humidity), the plants were sprayed with an aqueous spray solution derived from the formulation of the technical active ingredient in acetone/water (50:50) solution containing 0.5% Tween 20 (polyoxyethylene sorbitan monolaurate, CAS RN 9005-64-5) to give a final dose of 15.625, 62.5 or 250 g/ha of test compound.
(§2) The test plants were then grown on under controlled conditions in a glasshouse (at 24/16° C., day/night; 14 hours light; 65% humidity) and watered twice daily. After 13 days the test was evaluated (100=total damage to plant; 0=no damage to plant). A dash (-) means no test result.

Test [2] deals with barnyardgrass (Echinochloa crus-galli). As to the kind of experiment: Test G Pre-Emergence Protocol. As to conditions: Echinochloa crus-galli, pre-emergence, 312 h, evaluated after 13 days; for pest or weed control at 15.625 g/ha: 15.625 g ai/ha, read-out: Barnyard grass damage rating (100=total damage to plant; 0=no damage to plant); for pest or weed control at 62.5 g/ha: 62.5 g ai/ha, 100=total damage to plant, 0=no damage to plant, read-out: plant damage rating, Barnyardgrass; for pest or weed control at 250 g/ha: 250 g ai/ha, read-out: Barnyardgrass damage rating (100=total damage to plant; 0=no damage to plant). Here is the method: as §1, §2

Test [3] relates to giant foxtail (Setaria faberi). As to the kind of experiment: Test G Pre-Emergence Protocol. As to conditions: Setaria faberi, pre-emergence, 312 h, evaluated after 13 days; for pest or weed control at 15.625 g/ha: 15.625 g ai/ha; for pest or weed control at 15.625 g/ha / pest or weed control at 250 g/ha: read-out: Foxtail, Giant damage rating (100=total damage to plant; 0=no damage to plant); for pest or weed control at 62.5 g/ha: 62.5 g ai/ha, 100=total damage to plant, 0=no damage to plant, read-out: plant damage rating, Foxtail, Giant; for pest or weed control at 250 g/ha: 250 g ai/ha. Here is the method: as §1, §2

Test [4] relates to speedwell (bird's-eye speedwell, Veronica persica). As to the kind of experiment: Test D preemergence. The settings on record: scale 0 to 100. A digest of the protocol:
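Percent control (0–100) estimated by eye relative to untreated plants roughly 21 d after preemergence treatment of seeds in silt loam soil.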

Test [5] relates to poinsettia, wild (wild poinsettia, Euphorbia heterophylla). As to the kind of experiment: Test E preemergence. As to conditions: scale 0 to 100. In a few lines: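 Visual ratings from 0 (no effect) to 100 (complete control) were made versus controls 14 to 21 d after treatment. Seeds in silt loam were treated preemergence, or plants 2 to 18 cm tall in peat-based medium postemergence, with the test chemical in a surfactant-containing, non-phytotoxic solvent mixture, then held in a greenhouse.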

For the compound `Cc1ccc([C@H]2CN(C)C(=O)[C@@H]2C(=O)Nc2cccnc2F)cc1` [Compound 1398], in test [1], the pest or weed control at 15.625 g/ha turned out to be 0%, the pest or weed control at 62.5 g/ha came out at 60% and the pest or weed control at 250 g/ha is 80%. Further, in test [2], the pest or weed control at 15.625 g/ha is 80%, the pest or weed control at 62.5 g/ha turned out to be 90% and the pest or weed control at 250 g/ha is 90%. In test [3], the pest or weed control at 15.625 g/ha came out at 90%, the pest or weed control at 62.5 g/ha was determined as 90% and the pest or weed control at 250 g/ha worked out at 90%.
`CN1CC(c2cccc(C(F)(F)F)c2)C(C(=O)Nc2ccccc2S(C)(=O)=O)C1=O` (stereo not shown) [Compound 637]: the “Plant response rating: Speedwell” value in test [4] (31 g ai/ha) is on record as 15; in test [4] (62 g ai/ha), 60; in test [4] (125 g ai/ha) it was 100; in test [4] (250 g ai/ha) it was 100. Further, the “Plant response rating: Poinsettia, Wild” value in test [5] (31 g ai/ha) is recorded as 0; in test [5] (62 g ai/ha), 0; in test [5] (125 g ai/ha), 20; in test [5] (250 g ai/ha) it was 25.
Take `CN1CC(c2ccc(C(F)(F)F)cc2)C(C(=O)Nc2ccccc2S(C)(=O)=O)C1=O` (stereo not shown) [Compound 624]: the “Plant response rating: Speedwell” value in test [4] (31 g ai/ha) turned out to be 90; in test [4] (62 g ai/ha), 90; in test [4] (125 g ai/ha), 100; in test [4] (250 g ai/ha) it was 100. In addition, the “Plant response rating: Poinsettia, Wild” value in test [5] (31 g ai/ha) is recorded as 20; in test [5] (62 g ai/ha) it was 20; in test [5] (125 g ai/ha) it was 30; in test [5] (250 g ai/ha), 40.
In the case of `Cc1ccc([C@H]2CN(C)C(=O)[C@@H]2C(=O)Nc2ccc(F)nc2F)cc1` [Compound 1402], in test [1], the pest or weed control at 15.625 g/ha was 0%, the pest or weed control at 62.5 g/ha was found to be 70% and the pest or weed control at 250 g/ha worked out at 80%. Also, in test [2], the pest or weed control at 15.625 g/ha turned out to be 80%, the pest or weed control at 62.5 g/ha is 90% and the pest or weed control at 250 g/ha is 90%. Besides, in test [3], the pest or weed control at 15.625 g/ha was 90%, the pest or weed control at 62.5 g/ha was 90% and the pest or weed control at 250 g/ha was found to be 90%.
